Key:
Conditions in all cases: 72 h
U2OS [1] = assay: cell viability relative to DMSO; higher = less toxic
Calu-3 [2] = assay: as above
Caco-2 [3] = assay: as above
Vero E6 [4] = assay: as above
HepG2 [5] = assay: as above
U2OS [6] = assay: relative viability EC50 (midpoint between 100% and the lowest measured viability); higher = less toxic
Calu-3 [7] = assay: as above
Caco-2 [8] = assay: as above
Vero E6 [9] = assay: as above
HepG2 [10] = assay: as above
U2OS [11] = assay: drug sensitivity score (DSS) for viability; higher = more toxic; extreme values may be limits of the assay
Calu-3 [12] = assay: as above
Caco-2 [13] = assay: as above
Vero E6 [14] = assay: as above
HepG2 [15] = assay: as above

SMILES	cell viability (U2OS [1]; 1 nM) [%]	cell viability (U2OS [1]; 10 nM) [%]	cell viability (U2OS [1]; 100 nM) [%]	cell viability (U2OS [1]; 1000 nM) [%]	cell viability (U2OS [1]; 10000 nM) [%]	cell viability (Calu-3 [2]; 1 nM) [%]	cell viability (Calu-3 [2]; 10 nM) [%]	cell viability (Calu-3 [2]; 100 nM) [%]	cell viability (Calu-3 [2]; 1000 nM) [%]	cell viability (Calu-3 [2]; 10000 nM) [%]	cell viability (Caco-2 [3]; 1 nM) [%]	cell viability (Caco-2 [3]; 10 nM) [%]	cell viability (Caco-2 [3]; 100 nM) [%]	cell viability (Caco-2 [3]; 1000 nM) [%]	cell viability (Caco-2 [3]; 10000 nM) [%]	cell viability (Vero E6 [4]; 1 nM) [%]	cell viability (Vero E6 [4]; 10 nM) [%]	cell viability (Vero E6 [4]; 100 nM) [%]	cell viability (Vero E6 [4]; 1000 nM) [%]	cell viability (Vero E6 [4]; 10000 nM) [%]	cell viability (HepG2 [5]; 1 nM) [%]	cell viability (HepG2 [5]; 10 nM) [%]	cell viability (HepG2 [5]; 100 nM) [%]	cell viability (HepG2 [5]; 1000 nM) [%]	cell viability (HepG2 [5]; 10000 nM) [%]	relative viability EC50 (U2OS [6]) [µM]	relative viability EC50 (Calu-3 [7]) [µM]	relative viability EC50 (Caco-2 [8]) [µM]	relative viability EC50 (Vero E6 [9]) [µM]	relative viability EC50 (HepG2 [10]) [µM]	drug sensitivity score (U2OS [11])	drug sensitivity score (Calu-3 [12])	drug sensitivity score (Caco-2 [13])	drug sensitivity score (Vero E6 [14])	drug sensitivity score (HepG2 [15])
CC(C)OC(=O)OCOP(=O)(CO[C@H](C)Cn1cnc2c(N)ncnc21)OCOC(=O)OC(C)C [tenofovir-disoproxil]	96.2	101	92.6	103	95.8	97.1	104	97.1	95.4	80.8	96.3	93	93.8	97.2	89	102	94.9	96	94.3	96.7	102	101	109	82.2	44.6	> 10	> 10	> 10	> 10	1.35	0	1	0	0	5.6
CCCCCCCCCCCC1=C(O)C(=O)C=C(O)C1=O [embelin]	107	95.1	101	94.7	95.3	106	98.6	110	96.2	104	98.2	97.2	98.5	104	92.2	92.1	94.3	97.8	105	97	95.9	94.4	98.9	98.6	102	> 10	> 10	> 10	> 10	> 10	0	0	0	0	0
C[n+]1c2cc(N)ccc2cc2ccc(N)cc21.Nc1ccc2cc3ccc(N)cc3nc2c1 [acriflavine]	98.1	100	96.6	95.8	0	103	93.1	102	73	15.4	91.9	101	93.6	65.2	19.2	97	100	98.8	95.1	2.8	91.6	95.3	88.9	29.2	0.7	2.85	1.35	1.17	2.77	0.49	6.1	8.6	8.5	6.1	14.9
CC[C@H]1OC(=O)[C@H](C)[C@@H](O[C@H]2C[C@@](C)(OC)[C@@H](O)[C@H](C)O2)[C@H](C)[C@@H](O[C@@H]2O[C@H](C)C[C@H](N(C)C)[C@H]2O)[C@](C)(O)C[C@@H](C)CN(C)[C@H](C)[C@@H](O)[C@]1(C)O [azithromycin]	95.5	98.7	104	96.6	98.2	96.2	94.5	104	89.8	106	89.6	104	96.7	101	92.2	107	103	100	99.7	101	111	105	83.5	105	92	> 10	> 10	> 10	> 10	> 10	0	0	0	0	0

Reference: the supplement of paper PMC13380429
